Where a name gives a salt, the structure may show the parent alone.
Biological target: T1, human sigma 1 receptor (Homo sapiens, UniProt Q99720)
T1 construct: expressed in transfected cells; host or cells: HEK-293
Test: Human Sigma 1 Receptor Radioligand Assay
Type: binding
Settings: [3H](+)-pentazocine radioligand 5 nM; transfected HEK-293 membranes; 37° C., 120 minutes
Description: Human Sigma 1 Receptor Radioligand Assay
To investigate binding properties of sigma 1 receptor ligands to human sigma 1 receptor, transfected HEK-293 membranes and [^3H](+)-pentazocine (Perkin Elmer, NET-1056), as the radioligand, were used. The assay was carried out with 7 μg of membrane suspension, 5 nM of [^3H](+)-pentazocine in either absence or presence of either buffer or 10 μM Haloperidol for total and non-specific binding, respectively. Binding buffer contained Tris-HCl 50 mM at pH 8. Plates were incubated at 37° C. for 120 minutes. After the incubation period, the reaction mix was then transferred to MultiScreen HTS, FC plates (Millipore), filtered and plates were washed 3 times with ice-cold 10 mM Tris-HCL (pH 7.4). Filters were dried and counted at approximately 40% efficiency in a MicroBeta scintillation counter (Perkin-Elmer) using EcoScint liquid scintillation cocktail.

T1 sequence (Q99720 whole entry): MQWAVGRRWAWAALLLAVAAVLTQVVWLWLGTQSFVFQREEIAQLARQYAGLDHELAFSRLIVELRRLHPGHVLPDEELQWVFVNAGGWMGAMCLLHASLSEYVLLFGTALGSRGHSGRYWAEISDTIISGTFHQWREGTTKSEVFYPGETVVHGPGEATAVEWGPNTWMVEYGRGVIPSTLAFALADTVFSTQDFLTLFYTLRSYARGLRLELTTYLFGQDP

Ki [nM] | SMILES
50.3 | Cc1cc(OC[C@@H]2CC[C@@H]2CN2CCCC2)nn1-c1ccc(Cl)c(Cl)c1 [Example 15, 1-(3,4-Dichlorophenyl)-5-methyl-3-(((1R,2S)-2-(pyrrolidin-1-ylmethyl)cyclobutyl)methoxy)-1H-pyrazole]
178 | Cc1cc(OC[C@@H]2CC[C@@H]2CN2CCOCC2)nn1-c1ccc(Cl)c(Cl)c1 [Example 16, 4-(((1S,2R)-2-(((1-(3,4-Dichlorophenyl)-5-methyl-1H-pyrazol-3-yl)oxy)methyl)cyclobutyl)methyl)morpholine]
20.4 | Clc1ccc(-n2ccc(OC[C@@H]3CC[C@@H]3CN3CCCC3)n2)cc1Cl [Example 25, 1-(3,4-Dichlorophenyl)-3-(((1R,2S)-2-(pyrrolidin-1-ylmethyl)cyclobutyl)methoxy)-1H-pyrazole hydrochloride]
72.5 | Cc1cc(OC[C@@H]2CC[C@@H]2CN2CCCC2)nn1-c1ccc(Cl)c(Cl)c1 [Example 27, 1-(3,4-Dichlorophenyl)-5-methyl-3-(((1R,2S)-2-(pyrrolidin-1-ylmethyl)cyclobutyl)methoxy)-1H-pyrazole hydrochloride]
104 | Clc1ccc(-n2ccc(OC[C@@H]3CC[C@H]3CN3CCCC3)n2)cc1Cl [Example 28]
113 | Cc1cc(OC[C@@H]2CC[C@H]2CN2CCCC2)nn1-c1ccc(Cl)c(Cl)c1 [Example 29, 1-(3,4-Dichlorophenyl)-5-methyl-3-(((1R,2R)-2-(pyrrolidin-1-ylmethyl)cyclobutyl)methoxy)-1H-pyrazole]
578 | Cc1cc(OC[C@@H]2CC[C@H]2CN2CCOCC2)nn1-c1ccc(Cl)c(Cl)c1 [Example 30, 4-(((1R,2R)-2-(((1-(3,4-Dichlorophenyl)-5-methyl-1H-pyrazol-3-yl)oxy)methyl)cyclobutyl)methyl)morpholine]
465 | Cc1cc(OC[C@H]2CC[C@@H]2CN2CCOCC2)nn1-c1ccc(Cl)c(Cl)c1 [Example 36, 4-(((1S,2S)-2-(((1-(3,4-Dichlorophenyl)-5-methyl-1H-pyrazol-3-yl)oxy)methyl)cyclobutyl)methyl)morpholine]

Further lines, the molecule ahead of its results:

SMILES | Ki [nM]
c1ccc(OC[C@@H]2CC[C@@H]2CN2CCCC2)cc1 [Example 1, 1-(((1S,2R)-2-(Phenoxymethyl)cyclobutyl)methyl)pyrrolidine] | 7.1
CC1CCN(C[C@H]2CC[C@H]2COc2ccccc2)CC1 [Example 3, 4-Methyl-1-(((1S,2R)-2-(phenoxymethyl)cyclobutyl)methyl)piperidine] | 2.8
Clc1ccc(-n2ccc(OC[C@@H]3CC[C@@H]3CN3CCCC3)n2)cc1Cl [Example 13, 1-(3,4-Dichlorophenyl)-3-(((1R,2S)-2-(pyrrolidin-1-ylmethyl)cyclobutyl)methoxy)-1H-pyrazole] | 16.5
c1ccc(OC[C@@H]2CC[C@@H]2CN2CCOCC2)cc1 [Example 17, 4-(((1S,2R)-2-(Phenoxymethyl)cyclobutyl)methyl)morpholine hydrochloride] | 33.9
Clc1ccc(OC[C@@H]2CC[C@@H]2CN2CCCC2)cc1Cl [Example 18, 1-(((1S,2R)-2-((3,4-Dichlorophenoxy)methyl)cyclobutyl)methyl)pyrrolidine hydrochloride] | 2.3
Clc1ccc(OC[C@@H]2CC[C@@H]2CN2CCOCC2)cc1Cl [Example 19, 4-(((1S,2R)-2-((3,4-Dichlorophenoxy)methyl)cyclobutyl)methyl)morpholine hydrochloride] | 3.7
CC1CCN(C[C@H]2CC[C@H]2COc2ccc(Cl)c(Cl)c2)CC1 [Example 20, 1-(((1S,2R)-2-((3,4-Dichlorophenoxy)methyl)cyclobutyl)methyl)-4-methylpiperidine hydrochloride] | 4.8
Cn1nc(OC[C@@H]2CC[C@@H]2CN2CCCC2)cc1C(F)(F)F [Example 21, 1-Methyl-3-(((1R,2S)-2-(pyrrolidin-1-ylmethyl)cyclobutyl)methoxy)-5-(trifluoromethyl)-1H-pyrazole hydrochloride] | 19.1
Cn1nc(OC[C@@H]2CC[C@@H]2CN2CCOCC2)cc1C(F)(F)F [Example 22, 4-(((1S,2R)-2-(((1-Methyl-5-(trifluoromethyl)-1H-pyrazol-3-yl)oxy)methyl)cyclobutyl)methyl)morpholine hydrochloride] | 5.6
Cn1nc(C(F)(F)F)cc1OC[C@@H]1CC[C@@H]1CN1CCCC1 [Example 23, 1-Methyl-5-(((1R,2S)-2-(pyrrolidin-1-ylmethyl)cyclobutyl)methoxy)-3-(trifluoromethyl)-1H-pyrazole hydrochloride] | 30.1
Clc1ccc(-n2ccc(OC[C@@H]3CC[C@@H]3CN3CCOCC3)n2)cc1Cl [Example 26, 4-(((1S,2R)-2-(((1-(3,4-Dichlorophenyl)-1H-pyrazol-3-yl)oxy)methyl)cyclobutyl)methyl)morpholine hydrochloride] | 13.4
Cn1nc(OC[C@@H]2CC[C@H]2CN2CCCC2)cc1C(F)(F)F [Example 32, 1-Methyl-3-(((1R,2R)-2-(pyrrolidin-1-ylmethyl)cyclobutyl)methoxy)-5-(trifluoromethyl)-1H-pyrazole hydrochloride] | 17.2
Cn1nc(OC[C@H]2CC[C@H]2CN2CCCC2)cc1C(F)(F)F [Example 34, 1-Methyl-3-(((1S,2R)-2-(pyrrolidin-1-ylmethyl)cyclobutyl)methoxy)-5-(trifluoromethyl)-1H-pyrazole hydrochloride] | 28.3
Cn1nc(OC[C@H]2CC[C@@H]2CN2CCCC2)cc1C(F)(F)F [Example 38, 1-Methyl-3-(((1S,2S)-2-(pyrrolidin-1-ylmethyl)cyclobutyl)methoxy)-5-(trifluoromethyl)-1H-pyrazole hydrochloride] | 75.8
CCN(CC)C[C@H]1CC[C@@H]1COc1ccccc1 [Example 39, N,N-Diethyl-N-(((1S,2S)-2-(phenoxymethyl)cyclobutyl)methyl)ethanamine hydrochloride] | 39.9
